In BigSolDB 2.1:

COC(=O)c1c(Cl)nn(C)c1S(=O)(=O)NC(=O)Nc1nc(OC)cc(OC)n1
solubility (mole fraction)
Details | 278.15 K | 283.15 K | 288.15 K | 293.15 K | 298.15 K | 303.15 K | 308.15 K | 313.15 K | 318.15 K | 323.15 K
in DMF | 0.000768 | 0.000905 | 0.00105 | 0.00123 | 0.00142 | 0.0016 | 0.00182 | 0.00204 | 0.00227 | 0.00254
in ethanol | 3.56e-05 | 4.18e-05 | 4.87e-05 | 5.64e-05 | 6.48e-05 | 7.29e-05 | 8.22e-05 | 9.25e-05 | 0.000103 | 0.000116
in isopropanol | 3.3e-06 | 3.57e-06 | 3.85e-06 | 4.17e-06 | 4.51e-06 | 4.93e-06 | 5.33e-06 | 5.71e-06 | 6.19e-06 | 6.64e-06
in water | 3.24e-07 | 3.38e-07 | 3.51e-07 | 3.66e-07 | 3.81e-07 | 3.96e-07 | 4.11e-07 | 4.26e-07 | 4.44e-07 | 4.62e-07
